Measurements taken from the supplement of paper PMC13380429.

Key:
A549-ACE2 [1] = experiment: phospholipidosis EC50; higher = less potent phospholipidosis inducer
A549-ACE2 [2] = experiment: drug-induced phospholipidosis relative to tamoxifen; higher = more phospholipidosis
[3] = tested on: A549-ACE2 infected with SARS-CoV-2; experiment: cell count relative to DMSO; higher = less toxic; details: 24 h
[4] = tested on: A549-ACE2 infected with SARS-CoV-2; experiment: SARS-CoV-2 infection rate relative to DMSO; higher = more infection; details: 24 h
Vero E6 [5] = experiment: drug sensitivity score (DSS) for viability; higher = more toxic; extreme values may be limits of the assay; details: 72 h
Caco-2 [6] = experiment: as above; details: 72 h
HepG2 [7] = experiment: as above; details: 72 h
Calu-3 [8] = experiment: as above; details: 72 h
U2OS [9] = experiment: as above; details: 72 h
Vero E6 [10] = experiment: cell viability relative to DMSO; higher = less toxic; details: 72 h
HepG2 [11] = experiment: as above; details: 72 h
Calu-3 [12] = experiment: as above; details: 72 h
U2OS [13] = experiment: as above; details: 72 h
[14] = tested on: A549-ACE2 infected with SARS-CoV-2; experiment: morphology score (similarity to uninfected cells); higher = more like uninfected cells; details: 24 h
Vero E6 [15] = experiment: relative viability EC50 (midpoint between 100% and the lowest measured viability); higher = less toxic; details: 72 h
Caco-2 [16] = experiment: as above; details: 72 h
HepG2 [17] = experiment: as above; details: 72 h
U2OS [18] = experiment: as above; details: 72 h
Caco-2 [19] = experiment: cell viability relative to DMSO; higher = less toxic; details: 72 h
Calu-3 [20] = experiment: relative viability EC50 (midpoint between 100% and the lowest measured viability); higher = less toxic; details: 72 h

CN1CCC[C@@H]1CCO[C@](C)(c1ccccc1)c1ccc(Cl)cc1 [clemastine]
Details | SARS-CoV-2 infection rate [%] | cell count [%] | cell viability [%] | morphology score | phospholipidosis EC50 [µM]
A549-ACE2 [1], 24 h | – | – | – | – | 3.92
A549-ACE2 [1], 48 h | – | – | – | – | 4.81
A549-ACE2 [1], 72 h | – | – | – | – | 4.96
Calu-3 [12], 1 nM | – | – | 96.8 | – | –
Calu-3 [12], 10 nM | – | – | 101 | – | –
Calu-3 [12], 100 nM | – | – | 91.8 | – | –
Calu-3 [12], 1000 nM | – | – | 105 | – | –
Calu-3 [12], 10000 nM | – | – | 73.9 | – | –
HepG2 [11], 1 nM | – | – | 108 | – | –
HepG2 [11], 10 nM | – | – | 95.6 | – | –
HepG2 [11], 100 nM | – | – | 104 | – | –
HepG2 [11], 1000 nM | – | – | 96.5 | – | –
HepG2 [11], 10000 nM | – | – | 78.5 | – | –
U2OS [13], 1 nM | – | – | 95.4 | – | –
U2OS [13], 10 nM | – | – | 101 | – | –
U2OS [13], 100 nM | – | – | 96.1 | – | –
U2OS [13], 1000 nM | – | – | 103 | – | –
U2OS [13], 10000 nM | – | – | 96.7 | – | –
Vero E6 [10], 1 nM | – | – | 102 | – | –
Vero E6 [10], 10 nM | – | – | 96.5 | – | –
Vero E6 [10], 100 nM | – | – | 96.8 | – | –
Vero E6 [10], 1000 nM | – | – | 95.6 | – | –
Vero E6 [10], 10000 nM | – | – | 96.3 | – | –
[3], 0.3 µM | – | 99 | – | – | –
[3], 3 µM | – | 120 | – | – | –
[3], 10 µM | – | 123 | – | – | –
[3], 30 µM | – | 104 | – | – | –
[4], 0.3 µM | 100 | – | – | – | –
[4], 3 µM | 43 | – | – | – | –
[4], 10 µM | 32 | – | – | – | –
[4], 30 µM | 21 | – | – | – | –
[14], 0.3 µM | – | – | – | 0.04 | –
[14], 3 µM | – | – | – | 0.8 | –
[14], 10 µM | – | – | – | 0.86 | –
[14], 30 µM | – | – | – | 0.52 | –

drug-induced phospholipidosis [%], A549-ACE2 [2]
Details | 0.3 µM | 0.833333 µM | 3.33333 µM | 6.66667 µM | 10 µM | 30 µM
24 h | 0.63 | 8.33 | 38.5 | 87.2 | 102 | 98.4
48 h | 1.7 | 9.62 | 25.8 | 80.6 | 96.8 | –
72 h | 4.55 | 9.81 | 21.5 | 79.5 | 95.6 | –

Details | drug sensitivity score | relative viability EC50 [µM]
Caco-2 [6] | 0 | –
Caco-2 [16] | – | > 10
Calu-3 [8] | 0.8 | –
HepG2 [7] | 1.2 | –
HepG2 [17] | – | > 10
U2OS [9] | 0 | –
U2OS [18] | – | > 10
Vero E6 [5] | 0 | –
Vero E6 [15] | – | > 10

Cc1[nH]cnc1-c1ccc(Cl)cc1 [lofemizole]
drug-induced phospholipidosis [%], A549-ACE2 [2]
Details | 0.3 µM | 0.833333 µM | 3.33333 µM | 6.66667 µM | 10 µM | 30 µM
24 h | 3.89 | -1.13 | 0.51 | -0.91 | 0.71 | 5.39
48 h | 4.07 | 0.92 | 2.92 | 3.98 | 3.67 | 11.9
72 h | 4.05 | 0.285 | 0.756 | 2.05 | 2.84 | 12.6

Details | SARS-CoV-2 infection rate, [4] [%] | cell count, [3] [%] | cell viability, Caco-2 [19] [%] | cell viability, HepG2 [11] [%] | cell viability, U2OS [13] [%] | cell viability, Vero E6 [10] [%] | morphology score, [14]
1 nM | – | – | 98.4 | 99.4 | 95.9 | 103 | –
10 nM | – | – | 94.9 | 102 | 97.2 | 97 | –
100 nM | – | – | 95.2 | 105 | 97.5 | 96.5 | –
0.3 µM | 94 | 97 | – | – | – | – | 0.05
1000 nM | – | – | 98.7 | 93 | 99.2 | 96.7 | –
3 µM | 104 | 102 | – | – | – | – | 0.07
10 µM | 105 | 100 | – | – | – | – | -0.16
10000 nM | – | – | 101 | 107 | 103 | 102 | –
30 µM | 100 | 94 | – | – | – | – | -0.13

Details | drug sensitivity score | relative viability EC50 [µM]
Caco-2 [6] | 0 | –
Caco-2 [16] | – | > 10
HepG2 [7] | 0 | –
HepG2 [17] | – | > 10
U2OS [9] | 0 | –
U2OS [18] | – | > 10
Vero E6 [5] | 0 | –
Vero E6 [15] | – | > 10

CCCCCCCCNC(=O)/C(C#N)=C/c1cn(CCCN(C)C)c2ccccc12 [dynole-34-2]
Details | SARS-CoV-2 infection rate [%] | cell count [%] | cell viability [%] | morphology score | phospholipidosis EC50 [µM]
A549-ACE2 [1], 24 h | – | – | – | – | 0.825
A549-ACE2 [1], 48 h | – | – | – | – | 3.88
A549-ACE2 [1], 72 h | – | – | – | – | 6.62
Caco-2 [19], 1 nM | – | – | 97.3 | – | –
Caco-2 [19], 10 nM | – | – | 100 | – | –
Caco-2 [19], 100 nM | – | – | 103 | – | –
Caco-2 [19], 1000 nM | – | – | 95.5 | – | –
Caco-2 [19], 10000 nM | – | – | 63.9 | – | –
Calu-3 [12], 1 nM | – | – | 98.3 | – | –
Calu-3 [12], 10 nM | – | – | 96.7 | – | –
Calu-3 [12], 100 nM | – | – | 105 | – | –
Calu-3 [12], 1000 nM | – | – | 93.1 | – | –
Calu-3 [12], 10000 nM | – | – | -0.1 | – | –
HepG2 [11], 1 nM | – | – | 96.5 | – | –
HepG2 [11], 10 nM | – | – | 93.4 | – | –
HepG2 [11], 100 nM | – | – | 97.9 | – | –
HepG2 [11], 1000 nM | – | – | 95.8 | – | –
HepG2 [11], 10000 nM | – | – | 62 | – | –
U2OS [13], 1 nM | – | – | 104 | – | –
U2OS [13], 10 nM | – | – | 104 | – | –
U2OS [13], 100 nM | – | – | 99 | – | –
U2OS [13], 1000 nM | – | – | 102 | – | –
U2OS [13], 10000 nM | – | – | 5.2 | – | –
Vero E6 [10], 1 nM | – | – | 104 | – | –
Vero E6 [10], 10 nM | – | – | 102 | – | –
Vero E6 [10], 100 nM | – | – | 102 | – | –
Vero E6 [10], 1000 nM | – | – | 98.6 | – | –
Vero E6 [10], 10000 nM | – | – | 91.2 | – | –
[3], 0.3 µM | – | 97 | – | – | –
[4], 0.3 µM | 105 | – | – | – | –
[14], 0.3 µM | – | – | – | -0.05 | –

drug-induced phospholipidosis [%], A549-ACE2 [2]
Details | 0.3 µM | 0.833333 µM | 3.33333 µM | 6.66667 µM | 10 µM
24 h | 1.06 | 56.4 | 87.1 | 96.8 | 112
48 h | 1.92 | 50.3 | 46.7 | 92 | 119
72 h | 2.02 | 41.5 | 27.6 | 81.2 | 120

Details | drug sensitivity score | relative viability EC50 [µM]
Caco-2 [6] | 2.5 | –
Calu-3 [8] | 6.6 | –
Calu-3 [20] | – | 2.61
HepG2 [7] | 2.6 | –
U2OS [9] | 5.1 | –
U2OS [18] | – | 3.29
Vero E6 [5] | 0 | –
Vero E6 [15] | – | > 10
